A short description of series [1]: Rotating disk electrode study of hydroxyl-substituted anthraquinones in NaOH. Format: physicochemical. The settings on record: Hydroxy anthraquinones in NaOH. From the text: Bifunctional redox molecules can also be a molecule with different redox properties in various ranges of potentials. This type of molecule is typified by the substituted hydroxy anthraquinones. In this regard, redox properties of several substituted anthraquinones have been studies. Electrochemistry experiments on the rotating disk electrode confirm the existence of two diffusion limited regions separated by a significant potential difference of 0.5 V to 1.0 V for certain types of substitutions (FIG. 6). For these molecules, two different redox processes occur at different potentials. Those molecules which have hydroxyl substituents in positions such as 1,2- and 1, 4- are particularly suitable for this purpose.
In Table 2 below we summarize the properties of these types of substituted anthraquinones that can be used on both as positive and negative electrode materials and others that have similar moieties but are not suitable for this type of deployment. The use of these molecules is suitable for use both acidic and alkaline media as shown by the rotating electrode studies.

Series [2] is described as follows: Charge and discharge cycling of organic redox flow cells. Conditions: cell with anthraquinone-2,7-disulfonic acid, 0.5 M each. From the text:
In another embodiment, the effects of crossover can be mitigated by using a mixture of positive and negative electrolyte materials in equimolar quantities at both the electrodes. When such a mixture is charged only the positive electrolyte component will undergo oxidation reaction at the positive electrode and the negative electrolyte material will undergo reduction reactions at the negative electrode. Since the concentration of the redox active species is identical even if crossover occurs, the positive electrolyte material occurred to the negative electrolyte side this change in concentration will be balanced by back diffusion. Thus, there might be self-discharge but no permanent capacity loss or compositional change of the electrolyte. Any two redox couples that qualify as positive and negative electrolyte materials can be mixed in equimolar proportions and used as the electrolyte. We have shown the feasibility of rechargeability of this type of mixed materials using DMDHMS and AQDS (FIG. 8). Nearly 100% of the charge input was returned during discharge.
Based on the electrode potentials, the DHA can serve as the negative electrolyte and the AQDS can serve as the positive electrolyte. […] The cell was charged and discharged at 8 mA/cm^2. The value of cell voltage was consistent with that expected from the reduction potential of the redox couples. […]

Series [3] in a line: Cyclic voltammetry and redox cell states of AMBSA. It is filed as physicochemical. The settings on record: FIG. 4.
Series [4] can be described thus: Rate of crossover through NAFION 117 membrane. Format: physicochemical. The settings on record: for concentration appearing by crossover through the membrane: 192 hours; for crossover rate rank order: over 192 hours. From the text: In another embodiment, compounds for the first redox couple 22 and/or the second redox couple 32 of FIG. 1 that reduce crossover between the anode and cathode compartments are provided. The crossover of the redox active species across the cell is largely determined by the molecular size. Examples of the redox compounds of this embodiment include, but are not limited to, para-toluene sulfonic acid (p-TSA), 2,6-dimethyl-1,4-dihydroxy benzene 3-mono-sulfonic acid, 1,2-dihydroxybenzene-3,5-disulfonic acid (BQDS), and anthraquinone-2,7-disulfonic acid (AQDS). The rate of crossover of the various types of positive electrode materials through a NAFION® 117 membrane was measured. The concentration of p-TSA appearing by crossover through the membrane is found to be much higher than that of the DMDHMS and BQDS (FIG. 6). […] The crossover rate measured over a period of 192 hours provided a rank order of p-TSA>DMDHMS≈BQDS>>AQDS. This rank order correlates with molecular size. The molecules of smaller size will diffuse more readily through the proton conducting membrane. Therefore, it is claimed that by modifying the size of the molecule we can suppress or reduce crossover. The redox active molecules that are prone to crossover may be modified in the size by either applying substituent groups. Such substituent groups can be simple methyl groups, sulfonic acid groups, alkyl groups, branched alkyls such as tertiary butyl, aromatic groups such as phenyl or benzyl groups, multi-ring aromatic groups such as naphthyl, anthracenyl (with or without substituents) amino, quaternary amino, keto, carboxyl and quinone groups. Examples of such redox active molecules with substituents that are enhanced in molecular size include the following compounds having formula II, III, and IV: […]

The nature of series [5]: Cyclic voltammetry of redox couples in alkaline electrolyte. The settings on record: for reduction potential: vs. mercury/mercuric oxide reference electrode (MMO). It is filed as physicochemical. The source says: The redox couples must be soluble in the alkaline electrolyte and must can undergo facile electron transfer.
The reduction potential for this couple in alkaline electrolyte is about −0.35 V vs. MMO.
While these compounds are not suitable for operation in acidic media because of the attendant polymerization reactions, these compounds perform well in alkaline media. […] The reduction potentials are quite negative relative to the last example of DHA. Consequently, this may be combined with AQDS to form a redox flow battery.
The electrochemical reversibility of such a Michael addition-resistant compound is shown in FIG. 29 for benzenedi-hydroxy tetracarboxylic acid also called hydroquinonetetracarboxylic acid (HQTC). […] The reduction potential of HQTC is such that it can be combined with DHA to create a redox flow battery with a cell voltage of 0.5 V (FIG. 30). Further HQTC can also be combined with the molecules from the quinoxaline family, and the flavin family to yield redox flow batteries with the cell voltage in the range of 0.5 to 1 V. 1,2,4-trihydroxyanthraquinone (Purpurin) is claimed to be a negative electrode material suitable for operation in alkaline media.

A short description of series [6]: Crossover rate through NAFION 324 versus NAFION 117 membrane. Format: physicochemical. The settings on record: NAFION 324 (25-micron EW 1500 layer, 150-micron EW 1100 layer) vs NAFION 117 (EW 1100). The source says: In a variation, the reduced rate of crossover of the redox active molecules is achieved by using a membrane with a higher equivalent weight of NAFION®. The membrane NAFION® 324, has a 25-micron layer of equivalent weight 1500 and a 150-micron layer of equivalent weight 1100. The crossover rate of DMDHMS through such a membrane is just 0.65 of that through a homogenous NAFION® 117 membrane that has an equivalent weight of 1100 throughout the membrane.

Where [7] appears, read: alkaline electrolyte, 1 M potassium hydroxide.

Consider 15 molecules from patent publication US10833345B2, “Materials for high-performance aqueous organic redox flow batteries” (UNIVERSITY OF SOUTHERN CALIFORNIA, priority 2016, dated 2020).

With `O=C1c2ccccc2C(=O)c2c(O)c(O)cc(O)c21` [1,2,4-trihydroxy anthraquinone], in series [1], the “Di-Couple Potential (yes/no)” value is listed as “Yes”, the “Di-Couple Potential difference” value was 840 mV and the “E1/2(Volts) vs MMO” value is on record as −0.84 V.

Consider `O=C1c2ccccc2C(=O)c2c1cc(S(=O)(=O)O)c(O)c2O` [1,2-dihydroxy, 3-sulfonic acid anthraquinone], for which, in series [1], the “Di-Couple Potential (yes/no)” value is given as “Yes”, the “Di-Couple Potential difference” value came out at 930 mV and the “E1/2(Volts) vs MMO” value is −0.75 V.

In the case of `O=C1c2ccccc2C(=O)c2c(O)ccc(O)c21` [1,4-dihydroxy anthraquinone], in series [1], the “Di-Couple Potential (yes/no)” value is recorded as “Yes”, the “Di-Couple Potential difference” value is recorded as 880 mV and the “E1/2(Volts) vs MMO” value is on record as −0.63 V.

As to `O=C1c2cccc(O)c2C(=O)c2cccc(O)c21` [1,5-dihydroxy anthraquinone], in series [1], the “Di-Couple Potential (yes/no)” value was “No” and the “E1/2(Volts) vs MMO” value is −0.65 V.

Turning to `Cc1cc(O)c(C)c(S(=O)(=O)O)c1O` [2,5-dimethyl-1,4-dihydroxybenzene-3-sulfonic acid], the “resistance to Michael reaction, cycles of charge and discharge” value in series [2] is on record as “at least 100 cycles”.

As to `O=C1c2ccc(O)cc2C(=O)c2ccc(O)cc21` [2,6-dihydroxy anthraquinone], in series [1], the “Di-Couple Potential (yes/no)” value is on record as “No” and the “E1/2(Volts) vs MMO” value is reported as −0.8 V.

For `O=C1c2ccccc2C(=O)c2cc(Cc3cc(O)cc(S(=O)(=O)O)c3O)ccc21` [AMBSA, 2-anthraquinonemethyl (p-benzoquinol sulfonic acid)], in series [3], the cyclic voltammogram peaks entry was “two distinct peaks”.

In the case of `O=C1c2ccc(S(=O)(=O)O)cc2C(=O)c2cc(S(=O)(=O)O)ccc21` [AQDS, anthraquinone-2,7-disulfonic acid], in series [4], the “concentration appearing by crossover through the membrane” value is “not detected” and the “crossover rate rank order” value is given as “p-TSA>DMDHMS≈BQDS>>AQDS”. In series [5] (1 M sodium hydroxide), the “electrochemical behavior (cyclic voltammogram)” value (“electrochemical behavior” for short) is on record as “reversible electrochemical behavior” and the reduction potential result is recorded as “about −0.35 V”.

On to `O=S(=O)(O)c1cc(O)c(O)c(S(=O)(=O)O)c1` [BQDS, 1,2-dihydroxybenzene-3,5-disulfonic acid], for which, in series [4], the “crossover rate rank order” value is listed as “p-TSA>DMDHMS≈BQDS>>AQDS”.

For `O=C1c2cccc(O)c2C(=O)c2c(O)cccc21` [DHA, 1,8-dihydroxyanthraquinone], in series [5] (1 M sodium hydroxide), the “electrochemical behavior” value was “reversible electrochemical reaction” and the reduction potential result is recorded as “about −0.7 V”.

On to `Cc1cc(O)c(S(=O)(=O)O)c(C)c1O` [DMDHMS, 2,6-dimethyl-1,4-dihydroxybenzene-3-sulfonic acid], for which, in series [4], the “crossover rate rank order” value is reported as “p-TSA>DMDHMS≈BQDS>>AQDS”. Moreover, in series [6], the “crossover rate through NAFION 324 relative to NAFION 117” value was 0.65.

Consider `O=C(O)c1c(O)c(C(=O)O)c(C(=O)O)c(O)c1C(=O)O` [HQTC, hydroquinonetetracarboxylic acid], for which the “electrochemical behavior” value in series [5] (setting [7]) is “reversible electrochemical behavior with two different sets of peaks”.

As to `O=C1c2ccccc2C(=O)c2c1ccc(O)c2O` [difference1,2-dihydroxy anthraquinone, 1,2-dihydroxy anthraquinone], in series [1], the “Di-Couple Potential (yes/no)” value was “Yes”, the “Di-Couple Potential difference” value amounted to 1 V and the “E1/2(Volts) vs MMO” value is on record as −0.73 V.

Consider `Cc1ccc(S(=O)(=O)O)cc1` [p-TSA, para-toluene sulfonic acid, reference compound], for which, in series [4], the “concentration appearing by crossover through the membrane” value is listed as “much higher” and the “crossover rate rank order” value is “p-TSA>DMDHMS≈BQDS>>AQDS”.

On to `c1ccc2nccnc2c1` [quinoxaline], for which the “electrochemical behavior” value in series [5] (setting [7]) is “reversible electrochemical behavior”.
